Test results from PMC8398766, “Do Small Molecules Activate the TrkB Receptor in the Same Manner as BDNF? Limitations of Published TrkB Low Molecular Agonists and Screening for Novel TrkB Orthosteric Agonists” (Pharmaceuticals, 2021).
Several values for one entry are separate records, joined by “and”; a condition that tells them apart may be missing. Equal entries are not always repeated.

Key:
Test in all cases: BioPrint Profile Panel
Format in all cases: binding
[1] = target: T1, CysLT1 (LTD4) (Homo sapiens, UniProt Q9Y271); conditions: Agonist, Receptor, read-out: % of specific inhibition
T1 construct: purchased Eurofins Discovery (Cerep) BioPrint Profile Panel
Source text: (§1) The BioPrint® Profile Panel service offered by Eurofins Discovery (Poitiers, France) was chosen to perform selectivity analysis.

[2] = test system: BZD; conditions: 10 μM, Agonist, Ion Channel
Source text: as §1

[3] = target: T2, CCK1 (Homo sapiens, UniProt P32238); conditions: Agonist, Receptor, read-out: % of specific inhibition
T2 construct: purchased Eurofins Discovery (Cerep) BioPrint Profile Panel
Source text: as §1

[4] = test system: kainate; conditions: 10 μM; Agonist; Ion Channel
Source text: as §1

[5] = target: T3, M4 (Homo sapiens, UniProt P08173); conditions: Antagonist, Receptor, read-out: % of specific inhibition
T3 construct: purchased Eurofins Discovery (Cerep) BioPrint Profile Panel
Source text: as §1

[6] = target: T4, MC1 (Mus musculus, UniProt Q01727); conditions: Agonist, Receptor, read-out: % of specific inhibition
T4 construct: purchased Eurofins Discovery (Cerep) BioPrint Profile Panel
Source text: as §1

[7] = target: T5, RARα (Homo sapiens, UniProt P10276); conditions: Agonist, Receptor, read-out: % of specific inhibition
T5 construct: purchased Eurofins Discovery (Cerep) BioPrint Profile Panel
Source text: as §1

[8] = target: T6, ETB (Homo sapiens, UniProt P24530); conditions: Agonist, Receptor, read-out: % of specific inhibition
T6 construct: purchased Eurofins Discovery (Cerep) BioPrint Profile Panel
Source text: as §1

[9] = target: T7, 5-HT1B (Rattus norvegicus, UniProt P28564); conditions: Antagonist, Receptor, read-out: % of specific inhibition
T7 construct: purchased Eurofins Discovery (Cerep) BioPrint Profile Panel
Source text: as §1

[10] = target: T8, N neuronal α4β2 (Homo sapiens, UniProt P17787+P43681); conditions: Agonist, Receptor, read-out: % of specific inhibition
T8 construct: purchased Eurofins Discovery (Cerep) BioPrint Profile Panel
Source text: as §1

[11] = test system: N muscle-type; conditions: 10 μM; Antagonist; Receptor
Source text: as §1

[12] = target: T9, V1a (Homo sapiens, UniProt P37288); conditions: Agonist, Receptor, read-out: % of specific inhibition
T9 construct: purchased Eurofins Discovery (Cerep) BioPrint Profile Panel
Source text: as §1

[13] = target: T10, H4 (Homo sapiens, UniProt Q9H3N8); conditions: Agonist, Receptor, read-out: % of specific inhibition
T10 construct: purchased Eurofins Discovery (Cerep) BioPrint Profile Panel
Source text: as §1

[14] = target: T11, LXRβ (Homo sapiens, UniProt P55055); conditions: Agonist, Receptor, read-out: % of specific inhibition
T11 construct: purchased Eurofins Discovery (Cerep) BioPrint Profile Panel
Source text: as §1

[15] = target: T12, Estrogen Erα (Homo sapiens, UniProt P03372); conditions: Agonist, Receptor, read-out: % of specific inhibition
T12 construct: purchased Eurofins Discovery (Cerep) BioPrint Profile Panel
Source text: as §1

[16] = test system: NMDA; conditions: 10 μM; Antagonist; Ion Channel
Source text: as §1

[17] = target: T13, MT1 (ML1A) (Homo sapiens, UniProt P48039); conditions: Agonist, Receptor, read-out: % of specific inhibition
T13 construct: purchased Eurofins Discovery (Cerep) BioPrint Profile Panel
Source text: as §1

[18] = target: T14, α2C (Homo sapiens, UniProt P18825); conditions: Antagonist, Receptor, read-out: % of specific inhibition
T14 construct: purchased Eurofins Discovery (Cerep) BioPrint Profile Panel
Source text: as §1

[19] = target: T15, NK1 (Homo sapiens, UniProt P25103); conditions: Agonist, Receptor, read-out: % of specific inhibition
T15 construct: purchased Eurofins Discovery (Cerep) BioPrint Profile Panel
Source text: as §1

[20] = target: T16, VPAC1 (Homo sapiens, UniProt P32241); conditions: Agonist, Receptor, read-out: % of specific inhibition
T16 construct: purchased Eurofins Discovery (Cerep) BioPrint Profile Panel
Source text: as §1

[21] = target: T17, GABAB(1b) (Homo sapiens, UniProt Q9UBS5); conditions: Antagonist, Receptor, read-out: % of specific inhibition
T17 construct: purchased Eurofins Discovery (Cerep) BioPrint Profile Panel
Source text: as §1

[22] = target: T18, MAO-A (Rattus norvegicus, UniProt P21396); conditions: Antagonist, Non-Kinase Enzyme, read-out: % of specific inhibition
T18 construct: purchased Eurofins Discovery (Cerep) BioPrint Profile Panel
Source text: as §1

[23] = target: T19, 5-HT2A (Homo sapiens, UniProt P28223); conditions: Agonist, Receptor, read-out: % of specific inhibition
T19 construct: purchased Eurofins Discovery (Cerep) BioPrint Profile Panel
Source text: as §1

[24] = test system: GABA transporter; conditions: 10 μM, Antagonist
Source text: as §1

[25] = target: T20, AT1 (Homo sapiens, UniProt P30556); conditions: Antagonist, Receptor, read-out: % of specific inhibition
T20 construct: purchased Eurofins Discovery (Cerep) BioPrint Profile Panel
Source text: as §1

[26] = target: T21, α2A (Homo sapiens, UniProt P08913); conditions: Antagonist, Receptor, read-out: % of specific inhibition
T21 construct: purchased Eurofins Discovery (Cerep) BioPrint Profile Panel
Source text: as §1

[27] = target: T22, α2B (Homo sapiens, UniProt P18089); conditions: Antagonist, Receptor, read-out: % of specific inhibition
T22 construct: purchased Eurofins Discovery (Cerep) BioPrint Profile Panel
Source text: as §1

[28] = target: T23, AT2 (Homo sapiens, UniProt P50052); conditions: Agonist, Receptor, read-out: % of specific inhibition
T23 construct: purchased Eurofins Discovery (Cerep) BioPrint Profile Panel
Source text: as §1

[29] = target: T24, FP (Homo sapiens, UniProt P43088); conditions: Agonist, Receptor, read-out: % of specific inhibition
T24 construct: purchased Eurofins Discovery (Cerep) BioPrint Profile Panel
Source text: as §1

[30] = target: T25, NK2 (Homo sapiens, UniProt P21452); conditions: Agonist, Receptor, read-out: % of specific inhibition
T25 construct: purchased Eurofins Discovery (Cerep) BioPrint Profile Panel
Source text: as §1

[31] = target: T26, BB3 (Homo sapiens, UniProt P32247); conditions: Agonist, Receptor, read-out: % of specific inhibition
T26 construct: purchased Eurofins Discovery (Cerep) BioPrint Profile Panel
Source text: as §1

[32] = target: T27, CCK2 (CCKB) (Homo sapiens, UniProt P32239); conditions: Agonist, Receptor, read-out: % of specific inhibition
T27 construct: purchased Eurofins Discovery (Cerep) BioPrint Profile Panel
Source text: as §1

[33] = target: T28, IP (PGI2) (Homo sapiens, UniProt P43119); conditions: Agonist, Receptor, read-out: % of specific inhibition
T28 construct: purchased Eurofins Discovery (Cerep) BioPrint Profile Panel
Source text: as §1

[34] = target: T29, APJ (apelin) (Homo sapiens, UniProt P35414); conditions: Agonist, Receptor, read-out: % of specific inhibition
T29 construct: purchased Eurofins Discovery (Cerep) BioPrint Profile Panel
Source text: as §1

[35] = target: T30, Y1 (Homo sapiens, UniProt P25929); conditions: Agonist, Receptor, read-out: % of specific inhibition
T30 construct: purchased Eurofins Discovery (Cerep) BioPrint Profile Panel
Source text: as §1

[36] = test system: sigma; conditions: 10 μM; Agonist; Receptor
Source text: as §1

[37] = target: T31, AR (Homo sapiens, UniProt P10275, T878A); conditions: Agonist, Receptor, read-out: % of specific inhibition
T31 construct: purchased Eurofins Discovery (Cerep) BioPrint Profile Panel
Source text: as §1

[38] = target: T32, 5-HT1A (Homo sapiens, UniProt P08908); conditions: Agonist, Receptor, read-out: % of specific inhibition
T32 construct: purchased Eurofins Discovery (Cerep) BioPrint Profile Panel
Source text: as §1

[39] = target: T33, MCH1 (Homo sapiens, UniProt Q99705); conditions: Agonist, Receptor, read-out: % of specific inhibition
T33 construct: purchased Eurofins Discovery (Cerep) BioPrint Profile Panel
Source text: as §1

[40] = target: T34, 5-HT4e (Homo sapiens, UniProt Q13639); conditions: Antagonist, Receptor, read-out: % of specific inhibition
T34 construct: purchased Eurofins Discovery (Cerep) BioPrint Profile Panel
Source text: as §1

[41] = target: T35, H3 (Homo sapiens, UniProt Q9Y5N1); conditions: Agonist, Receptor, read-out: % of specific inhibition
T35 construct: purchased Eurofins Discovery (Cerep) BioPrint Profile Panel
Source text: as §1

[42] = target: T36, CRF1 (Homo sapiens, UniProt P34998); conditions: Agonist, Receptor, read-out: % of specific inhibition
T36 construct: purchased Eurofins Discovery (Cerep) BioPrint Profile Panel
Source text: as §1

[43] = target: T37, sst1 (Homo sapiens, UniProt P30872); conditions: Agonist, Receptor, read-out: % of specific inhibition
T37 construct: purchased Eurofins Discovery (Cerep) BioPrint Profile Panel
Source text: as §1

[44] = target: T38, ẟ(DOP) (Homo sapiens, UniProt P41143); conditions: Agonist, Receptor, read-out: % of specific inhibition
T38 construct: purchased Eurofins Discovery (Cerep) BioPrint Profile Panel
Source text: as §1

[45] = target: T39, glucagon (Homo sapiens, UniProt P47871); conditions: Agonist, Receptor, read-out: % of specific inhibition
T39 construct: purchased Eurofins Discovery (Cerep) BioPrint Profile Panel
Source text: as §1

T24 sequence (P43088 whole entry): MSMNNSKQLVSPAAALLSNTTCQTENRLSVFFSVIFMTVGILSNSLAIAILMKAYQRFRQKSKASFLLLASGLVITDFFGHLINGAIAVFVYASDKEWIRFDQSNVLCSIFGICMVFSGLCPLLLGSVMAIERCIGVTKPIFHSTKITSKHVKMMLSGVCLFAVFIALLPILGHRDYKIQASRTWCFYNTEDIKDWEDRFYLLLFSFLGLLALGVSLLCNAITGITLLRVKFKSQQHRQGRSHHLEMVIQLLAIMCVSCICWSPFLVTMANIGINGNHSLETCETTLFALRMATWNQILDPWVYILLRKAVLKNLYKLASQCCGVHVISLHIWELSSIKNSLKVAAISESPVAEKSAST
T21 sequence (P08913 whole entry): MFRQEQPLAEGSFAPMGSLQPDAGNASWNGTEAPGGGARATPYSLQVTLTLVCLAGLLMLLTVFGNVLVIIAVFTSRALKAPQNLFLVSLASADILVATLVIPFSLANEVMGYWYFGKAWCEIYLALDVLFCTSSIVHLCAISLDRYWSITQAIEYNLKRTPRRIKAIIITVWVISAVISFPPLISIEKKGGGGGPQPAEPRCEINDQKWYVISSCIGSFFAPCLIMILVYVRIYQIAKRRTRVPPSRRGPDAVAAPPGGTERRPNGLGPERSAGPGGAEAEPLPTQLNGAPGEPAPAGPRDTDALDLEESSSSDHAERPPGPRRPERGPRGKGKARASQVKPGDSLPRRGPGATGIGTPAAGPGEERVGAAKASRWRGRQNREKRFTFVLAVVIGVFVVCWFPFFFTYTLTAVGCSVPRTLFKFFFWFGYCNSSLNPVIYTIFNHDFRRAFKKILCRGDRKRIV
T12 sequence (P03372 whole entry): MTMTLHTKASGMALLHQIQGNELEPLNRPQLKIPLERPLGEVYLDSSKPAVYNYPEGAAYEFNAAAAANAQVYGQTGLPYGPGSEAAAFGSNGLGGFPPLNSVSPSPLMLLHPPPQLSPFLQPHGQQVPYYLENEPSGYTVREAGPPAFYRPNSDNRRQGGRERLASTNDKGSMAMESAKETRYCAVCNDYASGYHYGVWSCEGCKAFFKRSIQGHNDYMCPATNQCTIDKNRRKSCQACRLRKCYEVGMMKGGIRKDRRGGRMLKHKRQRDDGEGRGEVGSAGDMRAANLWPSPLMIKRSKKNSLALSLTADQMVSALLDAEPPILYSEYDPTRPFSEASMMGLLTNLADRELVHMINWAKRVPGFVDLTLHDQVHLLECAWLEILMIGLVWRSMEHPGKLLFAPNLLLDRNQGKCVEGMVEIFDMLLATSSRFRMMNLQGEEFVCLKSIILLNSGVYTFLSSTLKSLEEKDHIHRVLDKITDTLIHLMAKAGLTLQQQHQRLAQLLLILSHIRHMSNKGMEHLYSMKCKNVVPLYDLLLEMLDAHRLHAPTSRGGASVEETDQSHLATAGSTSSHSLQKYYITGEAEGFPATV
T39 sequence (P47871 26-477): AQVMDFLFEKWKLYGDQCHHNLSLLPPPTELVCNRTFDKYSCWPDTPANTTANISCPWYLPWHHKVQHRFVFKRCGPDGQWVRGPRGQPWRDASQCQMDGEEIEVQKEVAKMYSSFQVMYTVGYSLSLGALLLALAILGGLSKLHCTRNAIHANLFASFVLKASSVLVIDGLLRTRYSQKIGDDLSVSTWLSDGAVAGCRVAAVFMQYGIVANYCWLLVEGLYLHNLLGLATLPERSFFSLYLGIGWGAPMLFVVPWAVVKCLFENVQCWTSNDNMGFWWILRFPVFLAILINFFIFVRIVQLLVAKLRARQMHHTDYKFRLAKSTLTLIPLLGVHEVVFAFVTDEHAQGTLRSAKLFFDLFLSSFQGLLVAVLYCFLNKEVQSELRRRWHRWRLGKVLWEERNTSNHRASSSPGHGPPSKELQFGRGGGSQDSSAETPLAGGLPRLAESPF
T16 sequence (P32241 31-457): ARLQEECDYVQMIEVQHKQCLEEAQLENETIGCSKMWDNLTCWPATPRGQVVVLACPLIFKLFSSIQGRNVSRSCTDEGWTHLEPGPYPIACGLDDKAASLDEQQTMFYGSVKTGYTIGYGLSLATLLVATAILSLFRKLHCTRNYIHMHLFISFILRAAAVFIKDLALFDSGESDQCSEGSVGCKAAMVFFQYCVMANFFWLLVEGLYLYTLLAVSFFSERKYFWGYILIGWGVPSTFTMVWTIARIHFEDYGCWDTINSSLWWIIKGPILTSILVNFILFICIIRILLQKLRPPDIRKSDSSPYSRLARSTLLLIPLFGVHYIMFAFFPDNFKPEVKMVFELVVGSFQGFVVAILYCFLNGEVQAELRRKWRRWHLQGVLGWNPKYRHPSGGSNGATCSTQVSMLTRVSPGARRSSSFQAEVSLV
T17 sequence (Q9UBS5 1-844 isoform Q9UBS5-2): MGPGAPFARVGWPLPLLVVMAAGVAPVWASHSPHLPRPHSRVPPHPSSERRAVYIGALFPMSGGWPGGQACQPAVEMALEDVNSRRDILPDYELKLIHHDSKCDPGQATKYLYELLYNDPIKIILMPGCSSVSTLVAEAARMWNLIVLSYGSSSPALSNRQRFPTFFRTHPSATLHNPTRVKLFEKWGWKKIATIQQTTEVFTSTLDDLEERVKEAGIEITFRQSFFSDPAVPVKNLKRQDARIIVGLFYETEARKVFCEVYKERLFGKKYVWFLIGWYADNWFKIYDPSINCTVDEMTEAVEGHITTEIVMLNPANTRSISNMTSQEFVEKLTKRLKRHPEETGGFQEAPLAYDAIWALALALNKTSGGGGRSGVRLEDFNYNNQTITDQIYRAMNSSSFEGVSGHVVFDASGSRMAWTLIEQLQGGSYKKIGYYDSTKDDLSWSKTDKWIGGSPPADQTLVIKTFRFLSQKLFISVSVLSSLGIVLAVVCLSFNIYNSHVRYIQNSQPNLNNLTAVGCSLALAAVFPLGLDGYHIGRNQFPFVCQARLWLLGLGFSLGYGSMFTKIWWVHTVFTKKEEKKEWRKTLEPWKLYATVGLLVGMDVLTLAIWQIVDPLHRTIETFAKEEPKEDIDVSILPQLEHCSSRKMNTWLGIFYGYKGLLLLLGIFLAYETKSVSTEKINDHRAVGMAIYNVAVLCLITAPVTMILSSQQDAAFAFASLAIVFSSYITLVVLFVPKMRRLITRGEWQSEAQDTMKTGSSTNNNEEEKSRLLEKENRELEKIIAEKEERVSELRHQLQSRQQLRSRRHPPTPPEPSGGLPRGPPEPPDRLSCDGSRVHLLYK
T17 sequence (O75899 42-941 partner): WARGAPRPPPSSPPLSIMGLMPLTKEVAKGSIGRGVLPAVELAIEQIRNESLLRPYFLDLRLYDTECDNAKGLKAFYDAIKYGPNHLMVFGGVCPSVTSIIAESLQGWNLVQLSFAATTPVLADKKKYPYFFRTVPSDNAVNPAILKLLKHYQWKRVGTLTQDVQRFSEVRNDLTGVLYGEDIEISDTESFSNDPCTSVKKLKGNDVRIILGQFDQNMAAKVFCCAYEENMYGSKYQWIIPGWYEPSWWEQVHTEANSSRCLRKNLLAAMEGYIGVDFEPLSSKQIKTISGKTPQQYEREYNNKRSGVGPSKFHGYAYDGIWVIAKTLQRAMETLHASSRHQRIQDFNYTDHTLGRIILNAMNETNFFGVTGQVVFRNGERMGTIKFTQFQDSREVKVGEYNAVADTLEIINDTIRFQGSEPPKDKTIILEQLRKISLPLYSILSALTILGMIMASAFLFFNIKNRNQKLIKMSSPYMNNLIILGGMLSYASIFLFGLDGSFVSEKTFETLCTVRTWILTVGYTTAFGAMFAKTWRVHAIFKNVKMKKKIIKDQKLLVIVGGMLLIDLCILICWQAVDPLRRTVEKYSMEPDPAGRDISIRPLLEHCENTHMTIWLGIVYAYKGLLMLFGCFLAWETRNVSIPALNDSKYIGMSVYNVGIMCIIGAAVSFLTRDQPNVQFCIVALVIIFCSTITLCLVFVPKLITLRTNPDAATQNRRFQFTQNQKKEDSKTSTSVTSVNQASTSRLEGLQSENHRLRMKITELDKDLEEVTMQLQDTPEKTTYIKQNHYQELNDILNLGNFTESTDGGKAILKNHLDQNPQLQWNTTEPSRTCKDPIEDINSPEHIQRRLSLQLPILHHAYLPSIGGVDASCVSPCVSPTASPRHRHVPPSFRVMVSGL
T32 sequence (P08908 whole entry): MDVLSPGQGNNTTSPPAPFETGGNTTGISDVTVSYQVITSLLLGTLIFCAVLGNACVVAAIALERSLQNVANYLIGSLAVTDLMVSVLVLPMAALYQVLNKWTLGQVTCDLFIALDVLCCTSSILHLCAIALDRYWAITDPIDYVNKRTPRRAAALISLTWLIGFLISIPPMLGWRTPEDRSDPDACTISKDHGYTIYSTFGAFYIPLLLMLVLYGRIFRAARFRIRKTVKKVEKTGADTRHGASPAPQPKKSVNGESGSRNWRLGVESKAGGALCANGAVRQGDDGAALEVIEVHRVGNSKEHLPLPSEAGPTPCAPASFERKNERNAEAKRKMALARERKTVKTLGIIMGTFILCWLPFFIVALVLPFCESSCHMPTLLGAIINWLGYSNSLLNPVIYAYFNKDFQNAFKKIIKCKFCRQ
T26 sequence (P32247 whole entry): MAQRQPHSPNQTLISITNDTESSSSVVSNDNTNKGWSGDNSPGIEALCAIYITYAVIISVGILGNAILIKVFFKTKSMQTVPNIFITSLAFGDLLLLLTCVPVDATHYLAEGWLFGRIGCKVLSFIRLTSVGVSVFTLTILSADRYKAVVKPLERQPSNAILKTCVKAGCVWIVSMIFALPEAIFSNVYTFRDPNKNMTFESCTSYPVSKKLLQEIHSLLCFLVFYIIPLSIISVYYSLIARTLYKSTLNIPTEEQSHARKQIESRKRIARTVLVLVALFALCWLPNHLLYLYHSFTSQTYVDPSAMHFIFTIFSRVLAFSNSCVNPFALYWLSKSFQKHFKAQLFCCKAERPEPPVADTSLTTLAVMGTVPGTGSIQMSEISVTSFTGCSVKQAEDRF

O=c1cc(-c2ccccc2)oc2c(O)c(O)ccc12 [7,8-DHF, 7,8-dihydroxyflavone]
inhibition at 10 µM [1]: -10%
% Inhibition of Control Specific Binding [2]: 71% and 70.6%
inhibition at 10 µM [3]: 21%
% of specific inhibition [4]: 26%
inhibition at 10 µM [5]: -5%
inhibition at 10 µM [6]: -5%
inhibition at 10 µM [7]: -16%
inhibition at 10 µM [8]: -26%
inhibition at 10 µM [9]: 3%
inhibition at 10 µM [10]: 5%
% of specific inhibition [11]: -20%
inhibition at 10 µM [12]: -11%
inhibition at 10 µM [13]: -4%
inhibition at 10 µM [14]: 49%
inhibition at 10 µM [15]: 7%
% of specific inhibition [16]: 11%
inhibition at 10 µM [17]: 20%
inhibition at 10 µM [18]: 1%
inhibition at 10 µM [19]: 11%
inhibition at 10 µM [20]: -13%
inhibition at 10 µM [21]: -5%
inhibition at 10 µM [22]: 35%
inhibition at 10 µM [23]: -4%
% of specific inhibition [24]: -2%
inhibition at 10 µM [25]: 24%
inhibition at 10 µM [26]: -5%
inhibition at 10 µM [27]: -2%
inhibition at 10 µM [28]: 6%
inhibition at 10 µM [29]: 6%
inhibition at 10 µM [30]: -2%
inhibition at 10 µM [31]: 11%
inhibition at 10 µM [32]: 15%
inhibition at 10 µM [33]: 17%
inhibition at 10 µM [34]: 4%
inhibition at 10 µM [35]: 8%
% of specific inhibition [36]: 3%
inhibition at 10 µM [37]: 0%
inhibition at 10 µM [38]: -26%
inhibition at 10 µM [39]: -12%
inhibition at 10 µM [40]: -11%
inhibition at 10 µM [41]: -6%
inhibition at 10 µM [42]: 5%
inhibition at 10 µM [43]: 2%
inhibition at 10 µM [44]: -5%
inhibition at 10 µM [45]: 3%
